Among the data in ChEMBL document CHEMBL3425506, “Synthesis, antimycobacterial evaluation and pharmacophore modeling of analogues of the natural product formononetin” (2015) are inhibition of growth values, retold here.

This test relates to Mycobacterium tuberculosis. Kind of test: Antimycobacterial activity against Mycobacterium tuberculosis H37Rv ATCC 27294 assessed as inhibition of microbial growth at 10 uM after 5 to 8 days by MABA method. The format is functional. The note with it: read-out: GI. On the technique in general: Alamar Blue is a resazurin reagent that responds to reducing activity.
Take `COc1ccc(-c2coc3cc(O)ccc3c2=O)cc1` [FORMONONETIN]: the inhibition of growth at 10 µM was 88%.

Consider `COc1ccc(-c2coc3ccc(OC)cc3c2=O)cc1`, for which the inhibition of growth at 10 µM amounted to 0%. The value for `COc1ccc(-c2coc3cc(F)ccc3c2=O)cc1` was 0%; that for `COc1ccc(-c2coc3ccccc3c2=O)cc1` was 0%; that for `O=c1c(-c2ccc(Cl)cc2)coc2cc(O)ccc12` was 54%. The value for `COc1ccc(-c2coc3cc(O)ccc3c2=O)cc1OC` [CLADRIN] was 14%; that for `COc1ccc(-c2cnoc2-c2ccc(O)cc2O)cc1` was 15%. For `CC(C)(C)c1ccc(-c2coc3cc(O)ccc3c2=O)cc1` the value was 95%. With `COc1ccc(-c2coc3ccc(Cl)cc3c2=O)cc1`, the inhibition of growth at 10 µM came out at 0%.

As to `COc1ccc(-c2coc3ccc(O)cc3c2=O)cc1`, the inhibition of growth at 10 µM is 28%. For the compound `O=c1c(-c2ccccc2)coc2ccccc12` [ISOFLAVONE], the inhibition of growth at 10 µM was 0%. For `COc1ccc(-c2coc3cc(O)ccc3c2=O)cc1F` the value was 13%. For the compound `COc1ccc(-c2coc3cc(O)ccc3c2=S)cc1`, the inhibition of growth at 10 µM was 4%.

Regarding `N#Cc1ccc(-c2coc3cc(O)ccc3c2=O)cc1`, the inhibition of growth at 10 µM was 16%. With `COc1ccc(-c2coc3ccc(C)cc3c2=O)cc1`, the inhibition of growth at 10 µM is 7%. The value for `COc1ccc(/C=C/C(=O)c2ccc(O)cc2O)cc1` was 58%. The value for `COc1ccc(-c2coc3ccc(Br)cc3c2=O)cc1` was 5%. For `COc1ccc(-c2coc3cc(F)ccc3c2=O)cn1` the value was 2%. Regarding `COc1ccc(-c2c[nH]nc2-c2ccc(O)cc2O)cc1`, the inhibition of growth at 10 µM stood at 40%. The value for `COc1ccc(-c2coc3cc(O)ccc3c2=O)cn1` was 0%; that for `COc1ccc(-c2coc3ccc(F)cc3c2=O)cc1` was 0%.
